The source of these data is ChEMBL document CHEMBL3301546, “MMV Malaria Box yeast growth screening”.

Format in all cases: functional
The subject of assay [1] is Saccharomyces cerevisiae. Nature of the assay: (§1) MMV: Growth assays were conducted using the prototrophic S. cerevisiae strain JHY222. Each MMV compound (0.1 mM) was tested in minimal media containing dextrose as a carbon source (Yeast Nitrogen Base, Dextrose; YNBD). The growth rate in the presence of each MMV compound was calculated as follows: (i) the first 10 OD readings were averaged and subtracted from all OD readings of the corresponding curve to set the baseline of the growth curve to zero, and (ii) the area under the curve (AUC) was then calculated as the sum of all OD readings. […] A relative growth value was calculated as follows: AUC(DRUG) - AUC(DMSO)/AUC(DMSO); where AUC(DMSO) represents growth measured in a DMSO control well that was on the same microtiter plate of the drug-treated culture.

Assay [2] concerns Saccharomyces cerevisiae. The description is as §1, with “rich” for “minimal”, “Extract, Peptone,” for “Nitrogen Base,”, “YPD).” for “YNBD).”.
Assay [3] relates to Saccharomyces cerevisiae. The description is as §1, with “ethanol and glycerol” for “dextrose”, “as” for “as a”, “sources” for “source”, “Ethanol, Glycerol; YNBEG).” for “Dextrose; YNBD).”.

Turning to `COc1ccc2c(=O)cc(C(Cl)(Cl)Cl)oc2c1`, the results for the “Relative Growth” value in assay [1], in assay [2] and in assay [3] were 0.0555, 0.0032 and -0.0182, respectively.
For `COc1cc(-c2nc(-c3ccc(Sc4ccccc4)cc3)c(-c3ccccc3)[nH]2)cc(OC)c1O`, the “Relative Growth” value in assay [1] is recorded as -0.0129; in assay [2] it was -0.0314; in assay [3], -0.2127.
The like results for `COc1ccc(N2CCN(C(CNC(=O)CC(C)(C)C)c3ccc4c(c3)OCO4)CC2)cc1` (configuration not stated) were, in that order, -0.0787, 0.0032 and -0.1806.
The like results for `CN1c2ccccc2N(C)C1c1ccc2c(c1)OCO2` were, in that order, -0.0051, 0.0103 and 0.1265.
`Cc1cccc(Nc2nc(N)c3ccccc3n2)c1.Cl`: the “Relative Growth” value is recorded as 0.1313 in assay [1], -0.0941 in assay [2] and 0.3952 in assay [3].
The like results for `CCn1c(SCC(=O)Nc2cc(C(F)(F)F)ccc2Cl)nc2ccccc2c1=O` were, in that order, -0.0156, -0.0109 and -0.159.
Regarding `COc1cccc(C=Cc2nc(=O)c3ccccc3o2)c1OC`, the figures for the “Relative Growth” value in assay [1], in assay [2] and in assay [3] were 0.0576, -0.0201 and -0.4404, respectively.
For `COc1ccc(Br)cc1C1Nc2ccc3ccccc3c2C2=C1C(=O)CC(c1ccccc1)C2` (configuration not stated), the “Relative Growth” value in assay [1] is 0.0368; in assay [2], -0.0736; in assay [3], -0.105.
As to `O=C(Nc1ccc(CN2CCOCC2)cc1)c1ccc(-c2cc(Cl)ccc2Cl)o1`, the “Relative Growth” value in assay [1] was 0.0214; in assay [2], 0.0021; in assay [3], -0.173.
With `COc1cc(C(=O)ON=C(N)Cc2cccc3ccccc23)cc(OC)c1OC`, the “Relative Growth” value in assay [1] is 0.2835; in assay [2], -0.2539; in assay [3], 0.1784.
As for `COc1ccc(C(=O)C(CCC(CNC(C)(C)C)C(=O)c2ccc(OC)cc2)CNC(C)(C)C)cc1` (configuration not stated), the results for the “Relative Growth” value in assay [1], in assay [2] and in assay [3] were -0.0754, -0.0341 and -0.4347, respectively.
Consider `Cc1cc(NC(=O)c2ccc(-c3ccccc3)cc2)no1`, for which the “Relative Growth” value is recorded as 0.0468 in assay [1], -0.0826 in assay [2] and 0.0052 in assay [3].
In the case of `CC(C)(C)c1ccc(C(=O)Nc2nc3ccccc3s2)cc1`, the “Relative Growth” value in assay [1] is given as -0.0029; in assay [2], -0.132; in assay [3], -0.4045.
Take `COc1cc2c(cc1OC)C1=NNC(=O)C1=NC(C)(C)C2`: the “Relative Growth” value was -0.0857 in assay [1], -0.48 in assay [2] and -0.3659 in assay [3].
The like results for `COc1ccc(C2Sc3ccccc3N=C3C2=C(O)c2ccccc23)cc1` (configuration not stated) were, in that order, -0.0473, 0.0982 and 0.0327.
Consider `Cc1ccc(-c2cc3c(nn2)-c2ccccc2C3=O)cc1`, for which the “Relative Growth” value in assay [1] was -0.1641; in assay [2] it was -0.0004; in assay [3], -0.6667.
The like results for `COc1nc(Nc2ccc(C(C)C)cc2)nc(OC)n1` were, in that order, 0.0529, -0.007 and 0.0254.
On to `CCc1ccc(CNCC(O)c2ccccc2)cc1.Cl` (configuration not stated), for which the figures for the “Relative Growth” value in assay [1], in assay [2] and in assay [3] were -0.0182, -0.1772 and -0.0955, respectively.
Taken in the same sequence, the figures for `CCCc1c(C)nc2ccc(Br)cc2c1O` were -0.0231, 0.0054 and -0.1859.
As to `COc1ccc(C2C(C(=O)Nc3cccc(OC)c3)c3ccccc3C(=O)N2C2CCCCC2)cc1` (configuration not stated), the figures for the “Relative Growth” value in assay [1], in assay [2] and in assay [3] were 0.0321, -0.0663 and -0.1595, respectively.
Consider `CCN(CC)CCCNc1nc(-c2ccc(Cl)cc2)nc2ccccc12`, for which the “Relative Growth” value was 0.0809 in assay [1], -0.029 in assay [2] and -0.0397 in assay [3].
The like results for `CCOC(=O)c1cn(CC)c2cc(N3CCCCC3)c(F)cc2c1=O` were, in that order, -0.2997, -0.0482 and -0.2149.
Taken in the same sequence, the figures for `COc1ccc(CNC2CCN(c3ccc(NC(=O)c4cccc(Cl)c4)cc3)CC2)cc1OC` were 0.0343, -0.0405 and -0.0282.
For `Cc1ccc(Cl)cc1N1CCN(CCCNC(=O)C2CCN(c3nc4ccccc4[nH]3)CC2)CC1`, the “Relative Growth” value is 0.0248 in assay [1], -0.0122 in assay [2] and 0.0403 in assay [3].
Taken in the same sequence, the figures for `CCOC(=O)C1=C(C)N=c2sc(=Cc3ccccc3O)c(=O)n2C1c1ccc(OC)c2ccccc12` (configuration not stated) were 0.0217, -0.9923 and 0.0525.
The like results for `COc1cc(C(=O)Nc2ccc(-c3nc4ccccc4[nH]3)cc2)cc(OC)c1OC` were, in that order, -0.5664, -0.1004 and -0.2463.
Taken in the same sequence, the figures for `c1ccc(CNc2nc(Nc3ccccc3)nc3ccccc23)cc1` were -0.1327, -0.0158 and -0.0499.
Consider `COc1ccc(C=C2SC(Nc3ccc(F)cc3)=NC2=O)c(OC)c1`, for which the “Relative Growth” value is -0.7691 in assay [1], -0.0657 in assay [2] and -0.8081 in assay [3].
Turning to `CCCCNCC(O)(c1ccc(Cl)cc1)c1ccc(Cl)cc1`, the figures for the “Relative Growth” value in assay [1], in assay [2] and in assay [3] were -0.2198, 0.0298 and -0.1782, respectively.
The like results for `Cc1ccc(N2C(=O)C3C(C2=O)C2(c4ccccc4)C(=O)C3(c3ccccc3)C(c3ccccc3)=C2c2ccccc2)cc1` (configuration not stated) were, in that order, 0.0552, 0.0561 and 0.0311.
Taken in the same sequence, the figures for `O=C(NNc1cc(N2CCCC2)nc(N2CCCC2)n1)c1ccccc1` were 0.0342, -0.9952 and -0.0043.
Taken in the same sequence, the figures for `CCN1CCN(c2cc(C)c3cc(NC(=O)c4ccc(OC)c(OC)c4)ccc3n2)CC1` were -0.0518, -0.0203 and -0.0282.
On to `Cc1c(C)n(CC(O)CNC2CCCCC2C)c2ccccc12` (configuration not stated), for which the “Relative Growth” value in assay [1] is reported as -0.0308; in assay [2], -0.0794; in assay [3] it was -0.2246.
Taken in the same sequence, the figures for `CCN1CCN(Cc2ccc(NC(=O)c3cc4ccc5cccnc5c4[nH]3)cc2)CC1` were 0.0158, 0.0075 and -0.0693.
Taken in the same sequence, the figures for `Br.Cc1ccc(C)c(-c2csc(Nc3ccc(C)c(C)c3)n2)c1` were -0.0757, -0.11 and -0.3216.
The like results for `COc1ccc(C(=O)NC(c2ccc(Cl)cc2Cl)c2cc(Cl)c3cccnc3c2O)cc1` (configuration not stated) were, in that order, -0.2517, 0.0373 and -0.3135.
As for `COc1ccc2nc(C)cc(Nc3ccc(Cl)cc3)c2c1`, the entries for the “Relative Growth” value in assay [1], in assay [2] and in assay [3] were 0.0064, -0.0836 and -0.1037, respectively.
On to `COc1ccc(Nc2nc(N/N=C/c3ccc(O)cc3)nc(Nc3ccc([N+](=O)[O-])cc3)n2)cc1`, for which the “Relative Growth” value in assay [1] is given as 0.2735; in assay [2] it was 0.0149; in assay [3] it was 0.0812.
Taken in the same sequence, the figures for `COc1ccc(C2c3ccc4ccccc4c3Oc3ncn(CCCN(C)C)c(=N)c32)cc1` (configuration not stated) were -0.0503, -0.012 and -0.0587.
Taken in the same sequence, the figures for `CC1CCCCN1CCCNC(=O)c1ccc2c(c1)sc1nc(-c3ccc(F)cc3)cn12` (configuration not stated) were 0.1056, 0.083 and -0.161.
As for `Cc1cc(N2CCN(C3CCCC3)CC2)n2c(nc3ccccc32)c1C#N`, the figures for the “Relative Growth” value in assay [1], in assay [2] and in assay [3] were 0.1152, -0.0263 and -0.0829, respectively.
`COc1ccccc1N1CCN(C(CNS(=O)(=O)c2ccc(Cl)cc2)c2cccnc2)CC1` (configuration not stated): the “Relative Growth” value in assay [1] is listed as -0.1378; in assay [2], -0.173; in assay [3] it was -0.6721.
Regarding `Cn1c(C(=O)c2cccc3ccccc23)nc2ccccc21`, the “Relative Growth” value was 0.0393 in assay [1], -0.0135 in assay [2] and 0.1204 in assay [3].
The like results for `CN1C=C(c2ccc3ccccc3n2)C(c2c[nH]c3ccccc23)c2ccccc21` (configuration not stated) were, in that order, 0.0287, -0.6873 and -0.048.
